Here are results for 26 compounds from patent US11111251B2, “Positive allosteric modulators of the muscarinic acetylcholine receptor M1” (Vanderbilt University, priority 2016, dated 2021).

In this test the target is T1, human mAChR M1 (Homo sapiens, UniProt P11229).
T1 sequence (P11229 1-460): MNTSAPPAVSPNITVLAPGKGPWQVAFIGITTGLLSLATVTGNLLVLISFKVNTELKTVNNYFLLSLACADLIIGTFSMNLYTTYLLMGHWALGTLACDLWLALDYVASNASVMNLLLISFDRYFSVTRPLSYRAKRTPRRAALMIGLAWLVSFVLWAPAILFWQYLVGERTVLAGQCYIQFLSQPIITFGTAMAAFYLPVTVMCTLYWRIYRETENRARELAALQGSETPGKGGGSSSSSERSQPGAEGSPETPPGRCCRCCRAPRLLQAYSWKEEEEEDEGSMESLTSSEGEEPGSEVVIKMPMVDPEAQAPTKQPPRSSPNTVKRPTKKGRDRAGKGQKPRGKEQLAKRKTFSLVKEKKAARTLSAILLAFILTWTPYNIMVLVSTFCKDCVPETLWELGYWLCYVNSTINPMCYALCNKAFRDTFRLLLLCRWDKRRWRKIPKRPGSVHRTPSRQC
The experiment in a line: mAChR M1 cell-based functional assay: calcium mobilization, positive allosteric modulator mode (increase in EC20 acetylcholine response). As to conditions: for Emax: read-out: Human M1 Emax (%). A digest of the protocol:
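PAM potency reflects the concentration-dependent increase in calcium response to an EC20 acetylcholine challenge, given 144 s into a 300 s read after compound addition at 4 s (EC80 follows at 230 s). Cells were hM1-expressing CHO-K1, loaded 50 min with Fluo-4 AM. Curves used 11 points at 1:3 dilutions and four-parameter logistic fitting.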

Setting [1] is: Table 2, human M1, read-out: Human M1 EC50.

Where two headings read alike, the source gives them in different places.

Turning to `Cc1nc(-c2ccc(Cc3cc(C(=O)NC4CC5(COC5)C4)nc4ccsc34)cc2)cs1` [Compound 178, 7-[[4-(2-methylthiazol-4-yl)phenyl]methyl]-N-(2-oxaspiro[3.3]heptan-6-yl)thieno[3,2-b]pyridine-5-carboxamide], the EC50 under setting [1] amounted to 652 nM. The maximum response (Emax) (Table 2, human M1) worked out at 86%.

As to `O=C(NC1CC2(COC2)C1)c1cc(Cc2c(F)cc(-c3cscn3)cc2F)c2sccc2n1` [Compound 272, 7-[(2,6-difluoro-4-thiazol-4-yl-phenyl)methyl]-N-(2-oxaspiro[3.3]heptan-6-yl)thieno[3,2-b]pyridine-5-carboxamide], the EC50 under setting [1] was found to be 434 nM. Besides, under “Table 2, human M1”, the maximal effect (Emax) amounted to 35.9%. Taken in the same sequence, the figures for `Cc1csc2c(Cc3ccc(-c4ccn(C)n4)cc3)cc(C(=O)NC3CCOCC3)nc12` [Compound 302, 3-methyl-7-[[4-(1-methylpyrazol-3-yl)phenyl]methyl]-N-tetrahydropyran-4-yl-thieno[3,2-b]pyridine-5-carboxamide] were 405 nM and 69.9%. On to `Cn1cc(-c2ccc(Cc3cc(C(=O)N[C@@H]4CCCCC[C@H]4O)nc4ccsc34)cc2)nn1` [Compound 157, N-[(1R,2R)-2-hydroxycycloheptyl]-7-[[4-(1-methyltriazol-4-yl)phenyl]methyl]thieno[3,2-b]pyridine-5-carboxamide], for which the concentration giving a half-maximal response (EC50) under setting [1] stood at 24.2 nM. For the same compound, under “Table 2, human M1”, the maximum response (Emax) was 70%. As to `O=C(N[C@H]1CCCOC1)c1cc(Cc2ccc(-c3cscn3)cc2)c2sccc2n1` [Compound 213, N-([3S)-tetrahydropyran-3-yl]-7-[(4-thiazol-4-ylphenyl)methyl]thieno[3.2-b]pyridine-5-carboxamide], under setting [1], the EC50 worked out at 1120 nM. In addition, the Emax (Table 2, human M1) was found to be 61.2%. As to `O=C(N[C@H]1CCCC[C@@H]1O)c1cc(Cc2ccc(-c3cncs3)cc2)c2sccc2n1` [Compound 395, N-[(1S,2S)-2-hydroxycyclohexyl]-7-[(4-thiazol-5-ylphenyl)methyl]thieno[3,2-b]pyridine-5-carboxamide], the EC50 under setting [1] worked out at 18.5 nM. Further, the maximal effect (Emax) (Table 2, human M1) turned out to be 60.1%. As for `Cn1ncc2nc(C(=O)N[C@H]3CCOC[C@@H]3O)cc(Cc3ccc(-n4cccn4)cc3)c21` [Compound 499, N-[(3R,4S)-3-hydroxytetrahydropyran-4-yl]-1-methyl-7-[(4-pyrazol-1-ylphenyl)methyl]-pyrazolo[4,3-b]pyridine-5-carboxamide], the EC50 under setting [1] was found to be 267 nM. Further, the Emax (Table 2, human M1) came out at 65.3%.

As for `Cc1ccc(Cc2cc(C(=O)NC3CC4(COC4)C3)nc3ccsc23)cn1` [Compound 261, 7-[(6-methyl-3-pyridyl)methyl]-N-(2-oxaspiro[3.3]heptan-6-yl)thieno[3,2-b]pyridine-5-carboxamide], under setting [1], the 50% effective concentration (EC50) was over 10000 nM. The maximal response (Emax) (Table 2, human M1) turned out to be 52.8%. For the compound `O=C(NC1CC(F)(F)C1)c1cc(Cc2ccc(-n3cccn3)cc2)c2sccc2n1` [Compound 281, N-(3,3-difluorocyclobutyl)-7-[(4-pyrazol-1-ylphenyl)methyl]thieno[3,2-b]pyridine-5-carboxamide], the EC50 under setting [1] is 256 nM. Also, the Emax (Table 2, human M1) turned out to be 55%.

Take `Cc1nc(-c2ccc(Cc3cc(C(=O)N[C@@H]4COCC[C@H]4O)nc4ccsc34)cc2)co1` [Compound 167, N-[(3R,4R)-4-hydroxytetrahydropyran-3-yl]-7-[[4-(2-methyloxazol-4-yl)phenyl]methyl]thieno[3,2-b]pyridine-5-carboxamide]: the EC50 under setting [1] stood at 25.3 nM. In addition, the maximal effect (Emax) (Table 2, human M1) stood at 90.4%.

Consider `Cn1ccc(-c2ccc(Cc3cc(C(=O)N[C@H]4CCCC[C@@H]4O)nc4ccn(C)c34)cn2)n1` [Compound 512, N-[(1S,2S)-2-hydroxycyclohexyl]-1-methyl-7-[[6-(1-methylpyrazol-3-yl)-3-pyridyl]methyl]pyrrolo[3,2-b]pyridine-5-carboxamide; and], for which the 50% effective concentration (EC50) under setting [1] was found to be 91.3 nM. For the same compound, the Emax (Table 2, human M1) came to 70.8%. On to `Cc1csc2c(Cc3ccc(-n4cccn4)cc3)cc(C(=O)N[C@@H]3CCC[C@H]3O)nc12` [Compound 114, N-[(1R,2R)-2-hydroxycyclopentyl]-3-methyl-7-[(4-pyrazol-1-ylphenyl)methyl]thieno[3,2-b]pyridine-5-carboxamide], for which the EC50 under setting [1] was found to be 562 nM. Further, the Emax (Table 2, human M1) is 84.5%. As for `Cn1ccc(-c2ccc(Cc3cc(C(=O)NC[C@H]4CCCO4)nc4ccsc34)cn2)n1` [Compound 413, 7-[[6-(1-methylpyrazol-3-yl)-3-pyridyl]methyl]-N-[[(2R)-tetrahydrofuran-2-yl]methyl]thieno[3,2-b]pyridine-5-carboxamide], under setting [1], the EC50 is 191 nM. The Emax (Table 2, human M1) worked out at 72.5%.

Take `CC(C)(C)N1CC(NC(=O)c2cc(Cc3ccc(-c4cscn4)cc3)c3sccc3n2)C1` [Compound 203, N-(1-tert-butylazetidin-3-yl)-7-[(4-thiazol-4-ylphenyl)methyl]thieno[3,2-b]pyridine-5-carboxamide]: the 50% effective concentration (EC50) under setting [1] came out at 2200 nM. The maximal effect (Emax) (Table 2, human M1) is 75.3%.

As to `Cc1csc2c(Cc3ccc(-n4cccn4)cc3)cc(C(=O)N[C@H]3CCOC[C@@H]3O)nc12` [Compound 269, N-[(3R,4S)-3-hydroxytetrahydropyran-4-yl]-3-methyl-7-[(4-pyrazol-1-ylphenyl)methyl]thieno[3,2-b]pyridine-5-carboxamide], the half-maximal effective concentration (EC50) under setting [1] came out at 23.4 nM. Where the note is “Table 2, human M1”, the Emax is 77.6%. Consider `Cn1ncc2nc(C(=O)NCC3CCO3)cc(Cc3ccc(-n4cccn4)cc3)c21` (stereo not drawn) [Compound 501, 1-methyl-N-(oxetan-2-ylmethyl)-7-[(4-pyrazol-1-ylphenyl)methyl]pyrazolo[4,3-b]-pyridine-5-carboxamide], for which the concentration for a half-maximal effect (EC50) under setting [1] was over 10000 nM. In addition, under “Table 2, human M1”, the Emax stood at 57.4%. Consider `Cn1ncc2nc(C(=O)N[C@H]3CCCC[C@@H]3O)cc(Cc3ccc(-n4cccn4)cc3)c21` [Compound 498, N-[(1S,2S)-2-hydroxycyclohexyl]-1-methyl-7-[(4-pyrazol-1-ylphenyl)methyl]pyrazolo-[4,3-b]pyridine-5-carboxamide], for which, under setting [1], the EC50 turned out to be 428 nM. Also, the maximal effect (Emax) (Table 2, human M1) was found to be 67.3%. The matching figures for `O=C(N[C@H]1CCOC[C@@H]1O)c1cc(Cc2ccc(-n3cccn3)cc2)c2sccc2n1` [Compound 293, N-[(3R,4S)-3-hydroxytetrahydropyran-4-yl]-7-[(4-pyrazol-1-ylphenyl)methyl]thieno[3,2-b]pyridine-5-carboxamide]: 6 nM and 61.6%. With `Cc1csc2c(Cc3ccc(-n4cccn4)cc3)cc(C(=O)N[C@@H]3CCCC[C@H]3O)nc12` [Compound 116, N-[(1R,2R)-2-hydroxycyclohexyl]-3-methyl-7-[(4-pyrazol-1-ylphenyl)methyl]thieno[3,2-b]pyridine-5-carboxamide], under setting [1], the EC50 stood at 320 nM. Besides, the maximal response (Emax) (Table 2, human M1) was determined as 78.7%. As for `Cn1ccc2nc(C(=O)N[C@@H]3CCCOC3)cc(Cc3ccc(-c4cscn4)cc3)c21` [Compound 463, 1-methyl-N-[(3R)-tetrahydropyran-3-yl]-7-[(4-thiazol-4-ylphenyl)methyl]pyrrolo[3,2-b]pyridine-5-carboxamide], under setting [1], the concentration giving a half-maximal response (EC50) worked out at 1010 nM. Moreover, for the setting “Table 2, human M1”, the Emax came out at 71.9%. For the compound `Cn1cc(-c2ccc(Cc3cc(C(=O)N[C@H]4CCCCC[C@@H]4O)nc4ccsc34)c(F)c2)cn1` [Compound 54, 7-[[2-fluoro-4-(1-methylpyrazol-4-yl)phenyl]methyl]-N-[(1S,2S)-2-hydroxycycloheptyl]thieno[3,2-b]pyridine-5-carboxamide], under setting [1], the EC50 is over 10000 nM. Moreover, the maximum response (Emax) (Table 2, human M1) was found to be 53.1%.

Consider `O=C(NC[C@H]1CCCO1)c1cc(Cc2ccc(-n3cccn3)cc2)c2sccc2n1` [Compound 287, 7-[(4-pyrazol-1-ylphenyl)methyl]-N-[[(2R)-tetrahydrofuran-2-yl]methyl]thieno[3,2-b]pyridine-5-carboxamide], for which the EC50 under setting [1] was found to be 49.4 nM. Also, the Emax (Table 2, human M1) was 64.9%. Taken in the same sequence, the figures for `O=C(N[C@@H]1CCOC1)c1cc(Cc2ccc(-c3cncs3)cc2)c2sccc2n1` [Compound 400] were 4210 nM and 51.4%.

As for `Cn1cc(-c2ccc(Cc3cc(C(=O)N[C@H]4CCCC[C@@H]4O)nc4ccsc34)cn2)cn1` [Compound 224, N-[(1S,2S)-2-hydroxycyclohexyl]-7-[[6-(1-methylpyrazol-4-yl)-3-pyridyl]methyl]thieno[3,2-b]pyridine-5-carboxamide], the EC50 under setting [1] amounted to 13.4 nM. For the same compound, under “Table 2, human M1”, the maximal effect (Emax) turned out to be 71.2%. As to `Cn1cc(-c2ccc(Oc3cc(C(=O)N[C@H]4CCCC[C@@H]4O)nc4ccsc34)c(F)c2)cn1` [Compound 2, 7-[2-fluoro-4-(1-methylpyrazol-4-yl)phenoxy]-N-[(1S,2S)-2-hydroxycyclohexyl]thieno[3,2-b]pyridine-5-carboxamide], for the setting “Table 1, mAChR M1 cell-based functional assay, PAM mode, species not given, read-out: EC50”, the half-maximal effective concentration (EC50) was 2150 nM. Take `Cc1nc(-c2ccc(Cc3cc(C(=O)N[C@H]4CCCCC[C@@H]4O)nc4ccsc34)cc2)cs1` [Compound 196, N-[(1S,2S)-2-hydroxycycloheptyl]-7-[[4-(2-methylthiazol-4-yl)phenyl]methyl]thieno[3,2-b]pyridine-5-carboxamide]: the EC50 under setting [1] stood at 234 nM. Moreover, the maximal response (Emax) (Table 2, human M1) was 81.3%.
